Tests used:
BALB/c mice = format: in vivo; conditions: female BALB/c mice
Method: Female BALB/c mice, aged 10-12 wk, are housed in environmentally controlled specific pathogen-free conditions for 1 wk before study and for the duration of the experiments, which are performed according to J Appl Physiol, VOL 97, 2004, 2258-2265. Accordingly, mice are sensitized with intraperitoneal ovalbumin conjugated to aluminum potassium sulfate, as described in Am J Respir Cell Mol Biol 21: 473-479, 1999. Sensitized mice are subjected to either brief or chronic periods of allergen exposure, as described in Am J Respir Cell Mol Biol 27: 526-535, 2002. Control mice are subjected to the same sensitization protocol but are receiving saline challenges.
Allergen-challenged and control mice are studied at 24 h after the final exposure (at day 21) in the brief allergen-challenge protocol and at week 4 after the final exposure in the chronic allergen-challenge protocol. […]
At day 21 or week 4, respectively, the underlying contributors to airway responsiveness, namely airway reactivity [slope of increase in total respiratory system resistance (Rrs) for a given increase in MCh dose], airway sensitivity (lowest dose of MCh to produce bronchoconstriction), and the maximum inducible bronchoconstriction (maximum Rrs) are measured following brief or chronic allergen challenge. These components of airway responsiveness are measured based on the response of Rrs to saline and increasing (10, 33, 100, and 330 µg/kg) intravenous doses of MCh. Rrs is measured by using the flow interrupter technique, modified for use in mice, and described in Am J Respir Cell Mol Biol 21: 473-479, 1999, Am J Respir Cell Mol Biol 27: 526-535, 2002 and J Appl Physiol 89: 413-421, 2000. Total respiratory system resistance (Rrs) is measured in response to increasing doses of intravenous methacholine (MCh). Using the resulting Rrs-MCh dose-response curve, indexes of airway reactivity (Slope Rrs), airway sensitivity, or the lowest dose to produce bronchoconstriction (Break Rrs) and maximal degree of bronchoconstriction (Max Rrs) are measured. […]

[1] = tested on: patient having asthma with recurring asthma attacks; assay: Treatment of an asthma patient with oral cladribine tablets; format: in vivo; conditions: dosage regimen disclosed in WO2006067141
Method: A patient having asthma with recurring asthma attacks is treated with oral cladribine tablets and following the dosage regimen disclosed in WO2006067141. As a result, the symptoms of asthma and airway hyperresponsiveness are reduced in this patient.

Nc1nc(Cl)nc2c1ncn2[C@H]1C[C@H](O)[C@@H](CO)O1 [cladribine, 2-chloro-9-(2'-deoxy-beta-D-ribofuranosyl)-adenine]
signs of asthma, increased airway reactivity and maximal bronchoconstriction (BALB/c mice; brief or chronic allergen exposure, cladribine intraperitoneally 15 mg/kg per injection, as compared to the control): beneficial to reduce
asthma related symptoms such as increased bronchoconstriction and allergen-induced development of AHR (BALB/c mice; brief or chronic allergen exposure, cladribine intraperitoneally on days 1, 5 and 9, 15 mg/kg body weight per injection, versus phosphate buffer without cladribine): reduces or abrogates
host toxicity (BALB/c mice; cladribine intraperitoneally on days 1, 5 and 9, 15 mg/kg body weight per injection): little or no host toxicity
symptoms of asthma and airway hyperresponsiveness [1]: reduced

— patent EP2343074A1, “Use of purine analogues for treating airway diseases” (Merck Serono S.A., priority 2009, dated 2011)
